Assay results from patent US20240109900A1, “AZABICYCLIC SHP2 INHIBITORS” (IRBM S.P.A., priority 2021, published 2024).
Read-outs that look alike come from different tables or passages of the source.

Tests used:
[1] = target: SHP-2 enzyme (Met1-Leu525) (Homo sapiens (Human), UniProt Q06124); assay: SHP2 inhibition enzymatic assay; assay type: biochemical; settings: read-out: SHP2wt-IC50
Outline: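 SHP-2 (Met1-Leu525), 0.5 nM, activated with 500 nM IRS1 bis-phosphopeptide, preincubated 30 min with compounds in HEPES pH 7.2 buffer with 5 mM DTT. 75 μM DiFMUP added for 30 min at room temperature, stopped with bpV; fluorescence read. IC50 from four-parameter logistic fit of % inhibition.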

[2] = tested on: ERK phosphorylation in KYSE-520 cells; assay: Phospho-ERK cellular assay; assay type: cell-based; settings: KYSE-520 cells, 2 h at 37° C., phospho-ERK1/2 (Thr202/Tyr204) TR-FRET, read-out: PERK IC50
Outline: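 TR-FRET read-out of ERK1/2 Thr202/Tyr204 phosphorylation was taken after overnight antibody incubation at room temperature. Before that, KYSE-520 cells were treated 2 h at 37 °C with compound dilutions and lysed 30 min. Percent inhibition relative to vehicle and cell-free wells was fitted four-parametrically to give IC50.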

[3] = 0.5 nM SHP-2 activated by 500 nM IRS1 peptide, 75 μM DiFMUP substrate

SHP-2 enzyme (Met1-Leu525), sequence (Q06124 1-525): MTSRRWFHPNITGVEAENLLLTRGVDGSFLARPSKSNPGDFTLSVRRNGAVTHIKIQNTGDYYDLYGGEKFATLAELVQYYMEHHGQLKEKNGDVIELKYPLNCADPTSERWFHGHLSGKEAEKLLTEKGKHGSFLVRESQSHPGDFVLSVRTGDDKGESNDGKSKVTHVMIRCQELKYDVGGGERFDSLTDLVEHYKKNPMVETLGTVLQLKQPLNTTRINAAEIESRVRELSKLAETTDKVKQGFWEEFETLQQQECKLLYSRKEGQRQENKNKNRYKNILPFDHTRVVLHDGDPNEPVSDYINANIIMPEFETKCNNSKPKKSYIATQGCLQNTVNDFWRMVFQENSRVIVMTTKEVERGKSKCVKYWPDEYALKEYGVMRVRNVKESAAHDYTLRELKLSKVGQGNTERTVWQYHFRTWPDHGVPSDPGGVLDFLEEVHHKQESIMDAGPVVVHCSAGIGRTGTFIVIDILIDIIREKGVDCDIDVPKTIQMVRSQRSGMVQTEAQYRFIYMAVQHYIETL

| SMILES | IC50 [1, 3] [nM] | IC50 ([2]; Homo sapiens, KYSE-520, 2 h) [nM] | IC50 [2] [nM] | IC50 [1] [nM] | IC50 ([2]; Homo sapiens) [nM] |
| --- | --- | --- | --- | --- | --- |
| NC[C@]1(c2ccccc2F)[C@@H]2CCN(c3cnc4c(N5CCCc6ncccc65)n[nH]c4n3)C[C@@H]21 [Example 169, ((1S,6R,7R)-3-(3-(3,4-dihydro-1,5-naphthyridin-1(2H)-yl)-1H-pyrazolo[3,4-b]pyrazin-6-yl)-7-(2-fluorophenyl)-3-azabicyclo[4.1.0]heptan-7-yl)methanamine] | < 500 | < 1000 | – | – | – |
| Cn1cc2c(Cl)c(-c3n[nH]c4nc(N5CC[C@@H]6[C@H](C5)[C@@]6(CN)c5ccon5)cnc34)ccc2n1 [Example 123, ((1S,6R,7S)-3-(3-(4-chloro-2-methyl-2H-indazol-5-yl)-1H-pyrazolo[3,4-b]pyrazin-6-yl)-7-(isoxazol-3-yl)-3-azabicyclo[4.1.0]heptan-7-yl)methanamine] | < 500 | < 1000 | – | – | – |
| NCC1C2CCN(c3cnc(Sc4cccnc4C(F)(F)F)c(N)n3)CC12 (stereo not shown) [Example 75, 6-(7-(aminomethyl)-3-azabicyclo[4.1.0]heptan-3-yl)-3-((2-(trifluoromethyl)pyridin-3-yl)thio)pyrazin-2-amine] | < 500 | > 5000 | – | – | – |
| NC[C@]1(c2ccccc2F)[C@@H]2CCN(c3cnc4c(-c5ccn6ncnc6c5)n[nH]c4n3)C[C@@H]21 [Example 333, ((1S,6R,7R)-3-(3-([1,2,4]triazolo[1,5-a]pyridin-7-yl)-1H-pyrazolo[3,4-b]pyrazin-6-yl)-7-(2-fluorophenyl)-3-azabicyclo[4.1.0]heptan-7-yl)methanamine] | < 500 | < 1000 | – | – | – |
| NC[C@]1(c2ccccc2F)[C@@H]2CCN(c3cnc4c(C#Cc5ccccc5F)n[nH]c4n3)C[C@@H]21 [Example 334, ((1S,6R,7R)-7-(2-fluorophenyl)-3-(3-((2-fluorophenyl)ethynyl)-1H-pyrazolo[3,4-b]pyrazin-6-yl)-3-azabicyclo[4.1.0]heptan-7-yl)methanamine] | < 500 | < 1000 | – | – | – |
| CNC[C@]1(c2nc(C)cs2)[C@@H]2CN(c3cnc4c(-c5ccc6nn(C)cc6c5Cl)n[nH]c4n3)C[C@@H]21 [Example 484, 1-((1R,5S,6r)-3-(3-(4-chloro-2-methyl-2H-indazol-5-yl)-1H-pyrazolo[3,4-b]pyrazin-6-yl)-6-(4-methylthiazol-2-yl)-3-azabicyclo[3.1.0]hexan-6-yl)-N-methylmethanamine] | < 500 | < 1000 | – | – | – |
| NCC1(c2ccccn2)C2CCN(c3cnc(Sc4cccnc4C(F)(F)F)c(N)n3)CC21 (stereo not shown) [Example 72, 6-(7-(aminomethyl)-7-(pyridin-2-yl)-3-azabicyclo[4.1.0]heptan-3-yl)-3-((2-(trifluoromethyl)pyridin-3-yl)thio)pyrazin-2-amine] | < 500 | < 1000 | – | – | – |
| NC[C@]1(c2ccccc2F)[C@@H]2CCN(c3cnc4nc(-c5ccnc(-n6cccn6)c5)ccc4n3)C[C@@H]21 [Example 530, ((1S,6R,7R)-3-(6-(2-(1H-pyrazol-1-yl)pyridin-4-yl)pyrido[2,3-b]pyrazin-2-yl)-7-(2-fluorophenyl)-3-azabicyclo[4.1.0]heptan-7-yl)methanamine] | < 500 | > 5000 | – | – | – |
| Cc1csc(C2(CN)C3CCN(c4nc5nc(Sc6ccnc(N)c6Cl)cnc5[nH]4)CC32)n1 (stereo not shown) [Example 70, 4-((2-(7-(aminomethyl)-7-(4-methylthiazol-2-yl)-3-azabicyclo[4.1.0]heptan-3-yl)-1H-imidazo[4,5-b]pyrazin-5-yl)thio)-3-chloropyridin-2-amine] | – | – | – | < 500 | < 1000 |
| Cc1csc(C2(CN)C3CCN(c4cnc5c(-c6ccc(Cl)c7ncccc67)n[nH]c5n4)CC32)n1 (stereo not shown) [Example 442, (3-(3-(8-chloroquinolin-5-yl)-1H-pyrazolo[3,4-b]pyrazin-6-yl)-7-(4-methylthiazol-2-yl)-3-azabicyclo[4.1.0]heptan-7-yl)methanamine] | < 500 | < 1000 | – | – | – |
| Cn1cc2c(Cl)c(-c3n[nH]c4nc(N5C[C@@H]6[C@H](C5)[C@@]6(CN)c5nccs5)cnc34)ccc2n1 [Example 486, ((1R,5S,6r)-3-(3-(4-chloro-2-methyl-2H-indazol-5-yl)-1H-pyrazolo[3,4-b]pyrazin-6-yl)-6-(thiazol-2-yl)-3-azabicyclo[3.1.0]hexan-6-yl)methanamine] | < 500 | < 1000 | – | – | – |
| Cn1cc2c(Cl)c(-c3n[nH]c4nc(N5CC[C@@H]6[C@H](C5)[C@@]6(CN)c5cc(F)cc(F)c5)n(C)c(=O)c34)ccc2n1 [Example 344, 6-((1S,6R,7R)-7-(aminomethyl)-7-(3,5-difluorophenyl)-3-azabicyclo[4.1.0]heptan-3-yl)-3-(4-chloro-2-methyl-2H-indazol-5-yl)-5-methyl-1,5-dihydro-4H-pyrazolo[3,4-d]pyrimidin-4-one] | < 500 | < 1000 | – | – | – |
| Cc1csc([C@@]2(CN)[C@@H]3CN(c4cnc5c(-c6ccnc(N)c6Cl)n[nH]c5n4)C[C@@H]32)n1 [Example 517] | < 500 | – | < 1000 | – | – |
| Cn1cc2c(Cl)c(-c3n[nH]c4nc(N5C[C@@H]6[C@H](C5)[C@@]6(CN)c5ccc(F)cn5)cnc34)ccc2n1 [Example 495, ((1R,5S,6r)-3-(3-(4-chloro-2-methyl-2H-indazol-5-yl)-1H-pyrazolo[3,4-b]pyrazin-6-yl)-6-(5-fluoropyridin-2-yl)-3-azabicyclo[3.1.0]hexan-6-yl)methanamine] | < 500 | < 1000 | – | – | – |
| NC[C@]1(c2ccccc2F)[C@@H]2CCN(c3cnc4c(ccn4-c4ccnc5ccccc45)n3)C[C@@H]21 [Example 382, ((1S,6R,7R)-7-(2-fluorophenyl)-3-(5-(quinolin-4-yl)-5H-pyrrolo[2,3-b]pyrazin-2-yl)-3-azabicyclo[4.1.0]heptan-7-yl)methanamine] | < 500 | > 5000 | – | – | – |

Now from value to compound, other results behind:

| IC50 [1, 3] [nM] | IC50 ([2]; Homo sapiens, KYSE-520, 2 h) [nM] | IC50 [2] [nM] | SMILES | IC50 [1] [nM] | IC50 ([2]; Homo sapiens) [nM] |
| --- | --- | --- | --- | --- | --- |
| < 500 | < 1000 | – | CC(C)Oc1ccc(-c2n[nH]c3nc(N4CC[C@@H]5[C@H](C4)[C@@]5(CN)c4ccccc4F)cnc23)c2cccnc12 [Example 138, ((1S,6R,7R)-7-(2-fluorophenyl)-3-(3-(8-isopropoxyquinolin-5-yl)-1H-pyrazolo[3,4-b]pyrazin-6-yl)-3-azabicyclo[4.1.0]heptan-7-yl)methanamine] | – | – |
| < 500 | < 1000 | – | NC[C@]1(c2ccccc2F)[C@@H]2CCN(c3cnc4c(-c5ccc6c(=O)n(CCO)ccc6c5F)n[nH]c4n3)C[C@@H]21 [Example 351, 6-(6-((1S,6R,7R)-7-(aminomethyl)-7-(2-fluorophenyl)-3-azabicyclo[4.1.0]heptan-3-yl)-1H-pyrazolo[3,4-b]pyrazin-3-yl)-5-fluoro-2-(2-hydroxyethyl)isoquinolin-1(2H)-one] | – | – |
| < 500 | < 1000 | – | NC[C@]1(c2ccccc2F)[C@@H]2CCN(c3cnc4c(-c5ccc(N6CCCC6=O)cc5Cl)n[nH]c4n3)C[C@@H]21 [Example 326, 1-(4-(6-((1S,6R,7R)-7-(aminomethyl)-7-(2-fluorophenyl)-3-azabicyclo[4.1.0]heptan-3-yl)-1H-pyrazolo[3,4-b]pyrazin-3-yl)-3-chlorophenyl)pyrrolidin-2-one] | – | – |
| < 500 | < 1000 | – | Cc1nc2c(Cl)c(-c3n[nH]c4nc(N5CC[C@@H]6[C@H](C5)[C@@]6(CN)c5ccccc5F)cnc34)ccc2n1C [Example 349, ((1S,6R,7R)-3-(3-(4-chloro-1,2-dimethyl-1H-benzo[d]imidazol-5-yl)-1H-pyrazolo[3,4-b]pyrazin-6-yl)-7-(2-fluorophenyl)-3-azabicyclo[4.1.0]heptan-7-yl)methanamine] | – | – |
| < 500 | < 1000 | – | Cc1nc(-c2ccc(-c3n[nH]c4nc(N5CC[C@@H]6[C@H](C5)[C@@]6(CN)c5ccccc5F)cnc34)c(Cl)c2)no1 [Example 377, ((1S,6R,7R)-3-(3-(2-chloro-4-(5-methyl-1,2,4-oxadiazol-3-yl)phenyl)-1H-pyrazolo[3,4-b]pyrazin-6-yl)-7-(2-fluorophenyl)-3-azabicyclo[4.1.0]heptan-7-yl)methanamine] | – | – |
| < 500 | < 1000 | – | NC[C@]1(c2ccccc2F)[C@@H]2CCN(c3cnc4c(-c5ccc6c(=O)[nH]ccc6c5)n[nH]c4n3)C[C@@H]21 [Example 240, 6-(6-((1S,6R,7R)-7-(aminomethyl)-7-(2-fluorophenyl)-3-azabicyclo[4.1.0]heptan-3-yl)-1H-pyrazolo[3,4-b]pyrazin-3-yl)isoquinolin-1(2H)-one] | – | – |
| < 500 | < 1000 | – | NC[C@]1(c2ccccc2F)[C@@H]2CCN(c3cnc4c(-c5cccc6c(=O)[nH]ccc56)n[nH]c4n3)C[C@@H]21 [Example 209, 5-(6-((1S,6R,7R)-7-(aminomethyl)-7-(2-fluorophenyl)-3-azabicyclo[4.1.0]heptan-3-yl)-1H-pyrazolo[3,4-b]pyrazin-3-yl)isoquinolin-1(2H)-one] | – | – |
| < 500 | > 5000 | – | NC[C@]1(c2ccccc2F)[C@@H]2CCN(c3cnc4c(-c5ccc6nccc(=O)n6c5)n[nH]c4n3)C[C@@H]21 [Example 260, 7-(6-((1S,6R,7R)-7-(aminomethyl)-7-(2-fluorophenyl)-3-azabicyclo[4.1.0]heptan-3-yl)-1H-pyrazolo[3,4-b]pyrazin-3-yl)-4H-pyrido[1,2-a]pyrimidin-4-one] | – | – |
